“Also recorded” adds a separate entry of the source.
Tests used:
[1] = tested on: Tumor Necrosis Factor-alpha (TNF-α); assay: ELISA for TNF-α in culture media of EpiDermFT tissue inoculated with C. acnes; format: cell-based, human; conditions: C. acnes ATCC 11827 48 hours, 24-hour treatment
Experimental: (§1) EpiDermFT (EFT-400, MatTek Europe, Bratislava Slovak Republic) is a multilayered reconstituted model of the human dermis and epidermis, formed by culturing normal, human epidermal keratinocytes (NHEK) and normal, human dermal fibroblasts (NHFB). […] The dermal compartment is composed of a collagen matrix containing viable normal human dermal fibroblasts (NHDF). […] Testing was conducted on EpiDermFT in 12-well plates filled with culture medium without antibiotics at 37° C., 5% CO2, saturated humidity (90% RH). Inoculum-6 μL of lipid mix (olive oil and neutral triacylglycerol mixed 1:1) and 60 μL of C. acnes ATCC 11827, 10^7-10^8 CFU/mL-was applied to EpiDerm tissue for 48 hours. […] At the end of the treatment period, culture media was collected and stored at -20° C. for subsequent analysis by ELISA immunoassay for two inflammatory markers TNF-α and C[…] using commercially-available test kits-QuantikineTM ELISA Human Caspase-1/ICE Immunoassay and Human TNF-α Immunoassay both from R&D Systems, Inc. (Minneapolis, MN), Catalog Number DCA100 and DTAOOD, respectively.

Caspase-1 (CASP-1) = assay: ELISA for Caspase-1 in culture media of EpiDermFT tissue inoculated with C. acnes; format: cell-based, human; conditions: C. acnes ATCC 11827 48 hours, 24-hour treatment
Experimental: as §1

[2] = cited from earlier work
[3] = ethanol / ethyl alcohol, normal temperatures; cited from earlier work

| Compound | TNF-α inflammatory response versus the C. acnes treated control [1] | CASP-1 inflammatory response versus the C. acnes treated control (Caspase-1 (CASP-1)) | solvent quality for azelaic acid ([2]; isopropanol) | maximum azelaic acid dissolved in water ([2]; water) | stability of azelaic acid in ethanol [3] |
| --- | --- | --- | --- | --- | --- |
| O=C(O)c1ccccc1O [Group 1, salicylic acid] | increased inflammatory response | increased inflammatory response | – | – | – |
| O=C(O)CCCCCCCC(=O)O [azelaic acid, Azelaic acid] | – | – | good | ≤ 0.24 % by weight (w/w) | unstable; also recorded: instability |

Source: patent US20260232808A1, “Dicarboxylic Acid Concentrates” (Vantage Specialty Ingredients, Inc., priority 2023, published 2026)
